Measurements: US8299048B2, “Hexahydrocyclopentyl[f]indazole sulfonamides and derivatives thereof as selective glucocorticoid receptor modulators” (Merck Sharp & Dohme Corp., priority 2008, dated 2012)

Target: T1, glucocorticoid receptor (Homo sapiens, UniProt P04150)
T1 construct: endogenous in cells
T1 sequence (P04150 1-777): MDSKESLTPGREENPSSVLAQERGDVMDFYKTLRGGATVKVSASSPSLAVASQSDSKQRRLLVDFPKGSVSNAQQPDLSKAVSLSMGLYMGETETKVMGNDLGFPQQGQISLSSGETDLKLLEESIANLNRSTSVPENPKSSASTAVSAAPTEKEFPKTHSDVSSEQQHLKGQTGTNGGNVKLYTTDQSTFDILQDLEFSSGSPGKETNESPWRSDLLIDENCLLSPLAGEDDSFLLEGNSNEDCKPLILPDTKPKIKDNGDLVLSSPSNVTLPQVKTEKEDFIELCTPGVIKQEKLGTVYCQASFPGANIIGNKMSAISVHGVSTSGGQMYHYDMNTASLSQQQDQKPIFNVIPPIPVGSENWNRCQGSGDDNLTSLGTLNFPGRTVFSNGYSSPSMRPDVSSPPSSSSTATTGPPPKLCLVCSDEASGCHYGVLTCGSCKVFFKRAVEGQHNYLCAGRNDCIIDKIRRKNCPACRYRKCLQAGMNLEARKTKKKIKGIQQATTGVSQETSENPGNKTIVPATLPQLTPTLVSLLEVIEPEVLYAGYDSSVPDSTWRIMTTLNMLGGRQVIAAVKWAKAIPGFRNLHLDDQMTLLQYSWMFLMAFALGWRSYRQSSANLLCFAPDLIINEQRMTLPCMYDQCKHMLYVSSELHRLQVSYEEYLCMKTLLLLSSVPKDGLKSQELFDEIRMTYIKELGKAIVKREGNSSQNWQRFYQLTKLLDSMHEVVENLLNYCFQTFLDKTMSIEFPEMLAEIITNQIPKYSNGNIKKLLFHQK
Experiment: Ligand binding assay (GR BIND)
In short: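 Cytosol from freeze–thawed cells in TEGM (pH 7.2, 10 mM molybdate) was incubated overnight at 4 °C with compound and [3H]-dexamethasone trace (added as 6 nM solution), 2% EtOH final. Bound ligand was captured on hydroxylapatite, filtered, washed and scintillation counted. Values were calculated with dexamethasone as reference.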

| Ki [nM] | Structure (SMILES) |
| --- | --- |
| 2.3 | C[C@]12Cc3cnn(-c4ccc(F)cc4)c3C=C1CC[C@@H]2CN(CCO)S(=O)(=O)c1cc(Cl)c(Cl)s1 [Example 58, 4,5-dichloro-N-{[(4αR,5S)-1-(4-fluorophenyl)-4α-methyl-1,4,4α,5,6,7-hexahydrocyclopenta[f]indazol-5-yl]methyl}-N-(2-hydroxyethyl)thiophene-2-sulfonamide] |
| 7 | CCS(=O)(=O)N(CCOC)C[C@H]1CCC2=Cc3c(cnn3-c3ccc(F)cc3)C[C@@]21C [Example 171, N-{[(4αR,5S)-1-(4-fluorophenyl)-4α-methyl-1,4,4α,5,6,7-hexahydrocyclopenta[f]indazol-5-yl]methyl}-N-(2-methoxyethyl)ethanesulfonamide] |
| 2.7 | C[C@]12Cc3cnn(-c4ccc(F)cc4)c3C=C1CC[C@@H]2CN(CCc1ccccn1)S(=O)(=O)Cc1ccccc1C(N)=O [Example 196, 2-({[{[(4αR,5S)-1-(4-fluorophenyl)-4α-methyl-1,4,4α,5,6,7-hexahydrocyclopenta[f]indazol-5-yl]methyl}(2-pyridin-2-ylethyl)amino]sulfonyl}methyl)benzamide] |
